Results: PubChem BioAssay (NCI)
Values joined by “and” are separate entries in the source; they are usually repeats but may differ in a detail not shown here. Equal values may be shown once.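 1) Cells in 96-well plates. 2) Compound, 48 h, 5 concentrations. 3) Linear interpolation between surrounding doses. 4) Unreached endpoint = highest concentration. Abbreviation: GI50, concentration required for 50% inhibition of growth. The concentration for full growth arrest is given as TGI.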

test system: NCI-H460 lung; assay: NCI-60 cell line screen, 48 h

`O=C(N/C(=C\c1ccc([N+](=O)[O-])cc1)c1nc2ccccc2[nH]1)c1ccccc1` and `Cc1[nH]c2ccccc2c1C1Cc2ccccc2N1C(=O)C#Cc1ccc([N+](=O)[O-])cc1` (configuration not stated) cannot be ordered by TGI: greater than 100 µM for the first, greater than 100 µM for the second.

`COC(=O)/C([Se]c1c(C)cc(C)cc1C)=C(/[Se]c1c(C)cc(C)cc1C)C(=O)OC` and `Cc1cc2c(c(C(N)=O)c1C)-c1ccccc1C2=O` cannot be ordered by TGI: greater than 100 µM for the first, greater than 100 µM for the second.

Going from `NC(=O)C(=O)CC(=O)c1ccccc1NC1=CC(=O)C(=O)c2ccccc21` to `Cc1ccccc1C1=[N+]([O-])c2ccc(Cl)cc2C1=O`, the TGI falls from greater than 100 µM to 30.9 µM.

`COC(=O)/C(=N/O)C(C(=O)C=C(C)C)C(=O)C(=O)Nc1nc2ccc([N+](=O)[O-])cc2s1` (configuration not stated) and `CCOC(=O)NC(=O)c1cn(C2CCCCC2)c(=O)[nH]c1=O` cannot be ordered by TGI: greater than 100 µM for the first, greater than 100 µM for the second.

test system: U251 CNS; assay: NCI-60 cell line screen, 48 h

`Nc1ccccc1C(=O)/C=C/c1c(O)ccc2ccccc12` and `NC(=O)C(=O)CC(=O)c1ccccc1NC1=CC(=O)C(=O)c2ccccc21` cannot be ordered by TGI: greater than 100 µM for the first, greater than 100 µM for the second.

`CCC1CN2CCc3cc(OC)c(OC)cc3C2CC1CC1c2cc(OC)c(OC)cc2CCN1C(=O)C1CCCN1` (configuration not stated) and `CCNC(=O)/C(=C/c1ccc(OC)cc1)c1cc(OC)c(OC)c(OC)c1` are within 1.5-fold of each other in TGI: 69.4 µM for the first, 70 µM for the second.

`CC(C(=O)c1ccc(Cl)cc1)/C(=N/NC(=O)NN)C(=O)Nc1cccc(C(F)(F)F)c1` (configuration not stated) and `O=C(CC(=O)C1CCOC1=O)C(=O)Nc1cccc(Cl)c1` (configuration not stated) cannot be ordered by TGI: greater than 100 µM for the first, greater than 100 µM for the second.

`CCOP(=O)(OCC)C(C(=O)OC)C(=O)C(=O)Nc1ccc(Cl)cc1Cl` (configuration not stated) and `COC(=O)C(=O)C(C(C)=O)C(=O)NCc1ccc(OC)c(OC)c1` (configuration not stated) cannot be ordered by TGI: greater than 100 µM for the first, greater than 100 µM for the second.

`CC(C)=C1CCC(CN(C)C)C1=O` (configuration not stated) and `CCOC(=O)NC(=O)c1cn(C2CCCCC2)c(=O)[nH]c1=O` cannot be ordered by TGI: greater than 100 µM for the first, greater than 100 µM for the second.

Compared with `COc1cccc(/C=N/[N-]C(=O)c2ccncc2)c1[O-].COc1cccc(/C=N/[N-]C(=O)c2ccncc2)c1[O-].[O]=[U](=[O])([OH2+])[OH2+]`, `O=C(N/C(=C\c1ccc([N+](=O)[O-])cc1)c1nc2ccccc2[nH]1)c1ccccc1` is higher in TGI: 40.8 µM for the first, greater than 100 µM for the second.

Compared with `ClC(Cl)=C1C(=C(Cl)Cl)C(Cl)(Cl)C1(Cl)Cl`, `CC1=C(C#N)C(=O)CC(c2ccc(Cl)cc2)N(C)N1` (configuration not stated) is higher in TGI: 13.9 µM for the first, greater than 100 µM for the second.

First: CC(C)(C)c1ccc2c(c1)S(=O)(=O)Nc1ccc(Cl)cc1NS(=O)(=O)c1cc(C(C)(C)C)ccc1OCCOCCOCCO2
Second: Cc1ccccc1C1=[N+]([O-])c2ccc(Cl)cc2C1=O
The TGI of the first is higher: greater than 100 µM for the first, 32 µM for the second.

Compared with `CO[C@H]1Nc2c(ccc(C)c2O)C(=O)N2C=C(/C=C/C(N)=O)C[C@@H]12`, `Cc1cc2c(c(C(N)=O)c1C)-c1ccccc1C2=O` is higher in TGI: 10.8 µM for the first, greater than 100 µM for the second.

`N#CC(=Nc1ccccc1N(C(=O)c1ccccc1)C(=O)c1ccccc1)c1ccccc1` and `Cc1[nH]c2ccccc2c1C1Cc2ccccc2N1C(=O)C#Cc1ccc([N+](=O)[O-])cc1` (configuration not stated) cannot be ordered by TGI: greater than 100 µM for the first, greater than 100 µM for the second.

First: Nc1c(-c2ccccc2-c2c(N)[n+]([O-])c3ccccc3[n+]2[O-])[n+]([O-])c2ccccc2[n+]1[O-]
Second: CCN1c2ccccc2-c2c3c1cc(C)cc3c1ccccc1[n+]2CC
The TGI of the first is higher: greater than 100 µM for the first, 2.68 µM for the second.

First: CCOC(=O)NC(=O)c1cn(C(CC)COC(=O)NCCCCCCNC(=O)OCC(CC)n2cc(C(=O)NC(=O)OCC)c(=O)[nH]c2=O)c(=O)[nH]c1=O (configuration not stated)
Second: O=C(Cc1nc2c3c(ccc2[nH]c1=O)C(=O)c1ccccc1C3=O)C(=O)Nc1ccccc1[N+](=O)[O-]
The TGI of the first is higher: greater than 100 µM for the first, 32 µM for the second.

Going from `Cc1cccc(C2=C/C(=C(\SS/C(C(=O)c3ccc(OCC(=O)O)c(Cl)c3Cl)=C3\C=C(c4cccc(C)c4)SS3)C(=O)c3ccc(OCC(=O)O)c(Cl)c3Cl)SS2)c1` to `COc1cc(/C=C2\[C@H]3c4c(c(OC)c(C)c(OC)c4OC)CC(C(=O)N2Cc2ccccc2)N3C)c(OC)c(C)c1OC`, the TGI rises from 14.3 µM to 34.7 µM (2.4-fold).

`Nc1nc(-c2ccc(Cl)c([N+](=O)[O-])c2)cs1` and `COC(=O)/C(=N/O)C(C(=O)C=C(C)C)C(=O)C(=O)Nc1nc2ccc([N+](=O)[O-])cc2s1` (configuration not stated) cannot be ordered by TGI: greater than 100 µM for the first, greater than 100 µM for the second.

`COC(=O)/C([Se]c1c(C)cc(C)cc1C)=C(/[Se]c1c(C)cc(C)cc1C)C(=O)OC` was tested, and the TGI was greater than 100 µM.

In order of rising GI50:
1. COc1cccc(/C=N/[N-]C(=O)c2ccncc2)c1[O-].COc1cccc(/C=N/[N-]C(=O)c2ccncc2)c1[O-].[O]=[U](=[O])([OH2+])[OH2+]  4.34 µM
2. CN(C)C(=S)SSC(=S)N(C)C  12.6 µM

In the case of `CN(C)C(=S)SSC(=S)N(C)C`, the TGI is reported as 26 µM and > 65.3 µM and 38.5 µM.

test system: UO-31 renal; assay: NCI-60 cell line screen, 48 h

`Nc1ccccc1C(=O)/C=C/c1c(O)ccc2ccccc12` and `NC(=O)C(=O)CC(=O)c1ccccc1NC1=CC(=O)C(=O)c2ccccc21` cannot be ordered by TGI: greater than 100 µM for the first, greater than 100 µM for the second.

Going from `CCC1CN2CCc3cc(OC)c(OC)cc3C2CC1CC1c2cc(OC)c(OC)cc2CCN1C(=O)C1CCCN1` (configuration not stated) to `CCNC(=O)/C(=C/c1ccc(OC)cc1)c1cc(OC)c(OC)c(OC)c1`, the TGI rises from 47.4 µM to greater than 100 µM.

`CC(C(=O)c1ccc(Cl)cc1)/C(=N/NC(=O)NN)C(=O)Nc1cccc(C(F)(F)F)c1` (configuration not stated) and `O=C(CC(=O)C1CCOC1=O)C(=O)Nc1cccc(Cl)c1` (configuration not stated) cannot be ordered by TGI: greater than 100 µM for the first, greater than 100 µM for the second.

`CCOP(=O)(OCC)C(C(=O)OC)C(=O)C(=O)Nc1ccc(Cl)cc1Cl` (configuration not stated) and `COC(=O)C(=O)C(C(C)=O)C(=O)NCc1ccc(OC)c(OC)c1` (configuration not stated) cannot be ordered by TGI: greater than 100 µM for the first, greater than 100 µM for the second.

`CC(C)=C1CCC(CN(C)C)C1=O` (configuration not stated) and `CCOC(=O)NC(=O)c1cn(C2CCCCC2)c(=O)[nH]c1=O` cannot be ordered by TGI: greater than 100 µM for the first, greater than 100 µM for the second.

First: COc1cccc(/C=N/[N-]C(=O)c2ccncc2)c1[O-].COc1cccc(/C=N/[N-]C(=O)c2ccncc2)c1[O-].[O]=[U](=[O])([OH2+])[OH2+]
Second: O=C(N/C(=C\c1ccc([N+](=O)[O-])cc1)c1nc2ccccc2[nH]1)c1ccccc1
The TGI of the first is lower: 20 µM for the first, greater than 100 µM for the second.

Compared with `ClC(Cl)=C1C(=C(Cl)Cl)C(Cl)(Cl)C1(Cl)Cl`, `CC(=O)N1CCN(c2ccc(OCC3COC(Cn4ccnc4)(c4ccc(Cl)cc4Cl)O3)cc2)CC1` (configuration not stated) is 10-fold higher in TGI: 9.07 µM for the first, 91.9 µM for the second.

Compared with `CC(C)(C)c1ccc2c(c1)S(=O)(=O)Nc1ccc(Cl)cc1NS(=O)(=O)c1cc(C(C)(C)C)ccc1OCCOCCOCCO2`, `Cc1ccccc1C1=[N+]([O-])c2ccc(Cl)cc2C1=O` is lower in TGI: greater than 100 µM for the first, 31.2 µM for the second.

Compared with `CO[C@H]1Nc2c(ccc(C)c2O)C(=O)N2C=C(/C=C/C(N)=O)C[C@@H]12`, `Cc1cc2c(c(C(N)=O)c1C)-c1ccccc1C2=O` is higher in TGI: 0.0451 µM for the first, greater than 100 µM for the second.

`N#CC(=Nc1ccccc1N(C(=O)c1ccccc1)C(=O)c1ccccc1)c1ccccc1` and `Cc1[nH]c2ccccc2c1C1Cc2ccccc2N1C(=O)C#Cc1ccc([N+](=O)[O-])cc1` (configuration not stated) cannot be ordered by TGI: greater than 100 µM for the first, greater than 100 µM for the second.

First: Nc1c(-c2ccccc2-c2c(N)[n+]([O-])c3ccccc3[n+]2[O-])[n+]([O-])c2ccccc2[n+]1[O-]
Second: CCN1c2ccccc2-c2c3c1cc(C)cc3c1ccccc1[n+]2CC
The TGI of the first is higher: greater than 100 µM for the first, 20.8 µM for the second.

`CCOC(=O)NC(=O)c1cn(C(CC)COC(=O)NCCCCCCNC(=O)OCC(CC)n2cc(C(=O)NC(=O)OCC)c(=O)[nH]c2=O)c(=O)[nH]c1=O` (configuration not stated) and `O=C(Cc1nc2c3c(ccc2[nH]c1=O)C(=O)c1ccccc1C3=O)C(=O)Nc1ccccc1[N+](=O)[O-]` cannot be ordered by TGI: greater than 100 µM for the first, greater than 100 µM for the second.

`Cc1cccc(C2=C/C(=C(\SS/C(C(=O)c3ccc(OCC(=O)O)c(Cl)c3Cl)=C3\C=C(c4cccc(C)c4)SS3)C(=O)c3ccc(OCC(=O)O)c(Cl)c3Cl)SS2)c1` and `COc1cc(/C=C2\[C@H]3c4c(c(OC)c(C)c(OC)c4OC)CC(C(=O)N2Cc2ccccc2)N3C)c(OC)c(C)c1OC` are within 1.5-fold of each other in TGI: 32.2 µM for the first, 41.8 µM for the second.

First: Nc1nc(-c2ccc(Cl)c([N+](=O)[O-])c2)cs1
Second: COC(=O)/C(=N/O)C(C(=O)C=C(C)C)C(=O)C(=O)Nc1nc2ccc([N+](=O)[O-])cc2s1 (configuration not stated)
The TGI of the first is higher: greater than 100 µM for the first, 92.8 µM for the second.

`COC(=O)/C([Se]c1c(C)cc(C)cc1C)=C(/[Se]c1c(C)cc(C)cc1C)C(=O)OC` gave a TGI greater than 100 µM.

In order of rising GI50:
1. COc1cccc(/C=N/[N-]C(=O)c2ccncc2)c1[O-].COc1cccc(/C=N/[N-]C(=O)c2ccncc2)c1[O-].[O]=[U](=[O])([OH2+])[OH2+]  3.45 µM
2. CN(C)C(=S)SSC(=S)N(C)C  15 µM

With `CN(C)C(=S)SSC(=S)N(C)C` the TGI was 28.7 µM and > 46.4 µM and 94 µM.
